The results in this text go back to patent US20240025906A1 (NEURON23, INC., priority 2022, published 2024).

The test system of assay [1] is JAK1/TYK2 pSTAT5 (Tyr694/699) in THP-1 cell line. The assay is described as follows: IFNa-stimulated JAK1/TYK2 pSTAT5 (Tyr694/699) inhibition cellular assay, AlphaLISA. To be noted: Homo sapiens; THP-1 cells, IFNa-stimulated pSTAT5 (Tyr694/699), AlphaLISA (Assay B); read-out: Cellular_THP1_IFNa-pSTATS_TYK2. The assay is classed as cell-based. Put shortly: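 THP-1 cells (2e4/well in HBSS) were preincubated with compound (8 points, 6-fold steps from 10000 nM final) for 1 h at 37 °C, then stimulated with IFNa (added at 100 ng/mL) for 30 min. Lysate pSTAT5 was read by AlphaLISA at 615 nm. IC50 came from a 4-parameter fit with bottom 0 and Hill −1.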
In general terms: Alpha assays give light when donor and acceptor beads are brought close together.

Another assay addresses T1, TYK2 JH2 (Homo sapiens, UniProt P29597).
T1 construct: purchased DiscoverX (KINOMEscan KdELECT service); host or cells: E. coli BL21-derived (T7 phage display) or HEK-293
The assay is described as follows: TYK2 JH2 binding assay (KINOMEscan KdELECT competitive binding). As to conditions: TYK2 JH2 domain, KINOMEscan KdELECT (Assay A); read-out: Biochemical TYK2_DiscoverX_JH2_BND_Kd. Put shortly:
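Competition binding, KdELECT format. Kinase (phage-tagged, E. coli BL21-derived host; or HEK-293, DNA-tagged) + ligand-coated streptavidin beads + cpd, 1 h RT, final DMSO 0.9%. Wash, elute 30 min with 0.5 μM non-biotinylated ligand; qPCR readout. Kd: 11-pt, 3-fold series.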

T1 sequence (P29597 589-875 limits assumed): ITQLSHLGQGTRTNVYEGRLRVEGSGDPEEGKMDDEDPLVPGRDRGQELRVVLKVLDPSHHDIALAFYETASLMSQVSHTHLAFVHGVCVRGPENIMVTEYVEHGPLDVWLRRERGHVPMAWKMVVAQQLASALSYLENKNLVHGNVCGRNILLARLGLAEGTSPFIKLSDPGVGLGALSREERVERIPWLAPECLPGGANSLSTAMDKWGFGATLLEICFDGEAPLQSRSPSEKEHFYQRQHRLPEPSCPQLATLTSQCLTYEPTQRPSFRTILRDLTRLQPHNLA

In the case of `CNc1ncc(C#Cc2ccc(N3CCN(C)C3=O)cc2)c2cc(NC(=O)C3CC3)ncc12` [Example 1000, N-(5-((4-(3-methyl-2-oxoimidazolidin-1-yl)phenyl)ethynyl)-8-(methylamino)-2,7-naphthyridin-3-yl)cyclopropanecarboxamide], in assay [1], the IC50 was no more than 500 nM. In addition, on TYK2 JH2, the Kd is no more than 100 nM.
Regarding `CNc1ncc(C#Cc2ccc(-n3c(=O)ccn3C)cn2)c2cc(NC(=O)C3CC3)ncc12` [Example 1001, N-(5-((5-(2-methyl-5-oxo-2,5-dihydro-1H-pyrazol-1-yl)pyridine-2-yl)ethynyl)-8-(methylamino)-2,7-nahphthyridin-3-yl)cyclopropanecarboxamide], the IC50 in assay [1] is no more than 500 nM. The Kd at TYK2 JH2 was no more than 100 nM.
`CN=S(C)(=O)c1ccc(C#Cc2cnc(NC)c3cnc(NC(=O)C4CC4)cc23)cc1` (stereo not shown) [Example 1002, N-(5-((4-(N,S-dimethylsulfonimidoyl)phenyl)ethynyl)-8-(methylamino)-2,7-naphthyridin-3-yl)cyclopropanecarobxamide]: the IC50 in assay [1] was no more than 500 nM. Also, the Kd at TYK2 JH2 is no more than 100 nM.
On to `CNc1ncc(C#Cc2cn(C)c(C)n2)c2cc(NC(=O)C3CC3)ncc12` [Example 1003, N-(5-((1,2-dimethyl-1H-imidazol-4-yl)ethynyl)-8-(methylamino)-2,7-naphthyridin-3-yl)cyclopropanecarboxamide], for which the IC50 in assay [1] was no more than 500 nM. For the same molecule, on TYK2 JH2, the Kd was no more than 100 nM.
As for `CNc1ncc(C#Cc2cnc(C)n2C)c2cc(NC(=O)C3CC3)ncc12` [Example 1004, N-(5-((1,2-dimethyl-1H-imidazol-5-yl)ethynyl)-8-(methylamino)-2,7-naphthyridin-3-yl)cyclopropanecarboxamide], in assay [1], the IC50 was no more than 500 nM. Besides, the Kd at TYK2 JH2 is no more than 100 nM.
On to `CNc1ncc(C#Cc2ccc3c(c2)OC(C)CO3)c2cc(NC(=O)C3CC3)ncc12` (stereo not shown) [Example 1005, N-(5-((3-methyl-2,3-dihydrobenzo[b][1,4]dioxin-6-yl)ethynyl)-8-(methylamino)-2,7-naphthyridin-3-yl)cyclopropanecarboxamide], for which, in assay [1], the IC50 is no more than 500 nM. The Kd at TYK2 JH2 is no more than 100 nM.
`CNc1ncc(C#Cc2cn(C(F)F)c(C)n2)c2cc(NC(=O)C3CC3)ncc12` [Example 1006, N-(5-((1-(difluoromethyl)-2-methyl-1H-imidazol-4-yl)ethynyl)-8-(methylamino)-2,7-naphthyridin-3-yl)cyclopropanecarboxamide]: in assay [1], the IC50 was no more than 500 nM. The Kd at TYK2 JH2 was no more than 100 nM.
With `CNc1ncc(C#Cc2cn(C)nn2)c2cc(NC(=O)C3CC3)ncc12` [Example 1007, N-[8-(methylamino)-5-[2-(1-methyltriazol-4-yl)ethynyl]-2,7-naphthyridin-3-yl]cyclopropanecarboxamide], the IC50 in assay [1] is no more than 500 nM. The Kd on TYK2 JH2 is no more than 100 nM.
Consider `CNc1ncc(C#Cc2cn(C)cn2)c2cc(NC(=O)[C@H]3C[C@H]3C)ncc12` [Example 1008, (1S,2R)-2-methyl-N-(5-((1-methyl-1H-imidazol-4-yl)ethynyl)-8-(methylamino)-2,7-naphthyridin-3-yl)cyclopropane-1-carboxamide], for which, in assay [1], the IC50 is no more than 500 nM. Further, the Kd on TYK2 JH2 was no more than 100 nM.
For `CNc1ncc(C#Cc2cn(C)nn2)c2cc(NC(=O)[C@H]3C[C@H]3C)ncc12` [Example 1009], in assay [1], the IC50 is no more than 500 nM. At TYK2 JH2, the Kd was no more than 100 nM.
As to `CNc1ncc(C#Cc2cn(C)c(C)n2)c2cc(NC(=O)[C@H]3C[C@H]3C)ncc12` [Example 1010, (1S,2R)-N-(5-((1,2-dimethyl-1H-imidazol-4-y)ethynyl)-8-(methylamino)-2,7-naphthyridin-3-yl)-2-methylcyclopropane-1-carboxamide], the IC50 in assay [1] is no more than 500 nM. The Kd at TYK2 JH2 is no more than 100 nM.
Taken in the same sequence, the figures for `CNc1ncc(C#Cc2cnc(C)n2C)c2cc(NC(=O)[C@H]3C[C@H]3C)ncc12` [Example 1011] were no more than 500 nM and no more than 100 nM.
Taken in the same sequence, the figures for `CNc1ncc(C#Cc2nccc3cc(C)sc23)c2cc(NC(=O)C3CC3)ncc12` [Example 1012, N-(8-(methylamino)-5-((2-methylthieno[2,3-c]pyridin-7-yl)ethynyl)-2,7-naphthyridin-3-yl)cyclopropanecarboxamide] were no more than 500 nM and no more than 100 nM.
As to `CNc1ncc(C#Cc2ccc3c(c2)CCC3=O)c2cc(NC(=O)C3CC3)ncc12` [Example 1013, N-(8-(methylamino)-5-((1-oxo-2,3-dihydro-1H-inden-5-yl)ethynyl)-2,7-naphthyridin-3-yl)cyclopropanecarboxamide], the IC50 in assay [1] is no more than 500 nM. The Kd at TYK2 JH2 is no more than 100 nM.
On to `CNc1ncc(C#Cc2cccc3c2OCCC3)c2cc(NC(=O)C3CC3)ncc12` [Example 1014, N-(5-(chroman-8-ylethynyl)-8-(methylamino)-2,7-naphthyridin-3-yl)cyclopropanecarboxamide], for which the IC50 in assay [1] is no more than 500 nM. At TYK2 JH2, the Kd is no more than 100 nM.
In the case of `CNc1ncc(C#Cc2ccc3[nH]ccc3c2)c2cc(NC(=O)C3CC3)ncc12` [Example 1015, N-(5-((1H-indol-5-yl)ethynyl)-8-(methylamino)-2,7-naphthyridin-3-yl)cyclopropanecarboxamide], the IC50 in assay [1] is no more than 500 nM. Further, the Kd on TYK2 JH2 is no more than 100 nM.
Turning to `CNc1ncc(C#Cc2nccc3ncsc23)c2cc(NC(=O)C3CC3)ncc12` [Example 1016, N-(8-(methylamino)-5-(thiazolo[5,4-c]pyridin-4-ylethynyl)-2,7-naphthyridin-3-yl)cyclopropanecarboxamide], the IC50 in assay [1] was no more than 500 nM. In addition, the Kd on TYK2 JH2 was no more than 100 nM.
In the same order, the values of `CNc1ncc(C#Cc2ccc3c(c2)C(=O)N(C)C3)c2cc(NC(=O)C3CC3)ncc12` [Example 1017, N-(5-((2-methyl-3-oxoisoindolin-5-yl)ethynyl)-8-(methylamino)-2,7-naphthyridin-3-yl)cyclopropanecarboxamide] are no more than 500 nM and no more than 100 nM.
With `CNc1ncc(C#Cc2c(C)nn(C)c2C)c2cc(NC(=O)C3CC3)ncc12` [Example 1018, N-(8-(methylamino)-5-((1,3,5-trimethyl-1H-pyrazol-4-yl)ethynyl)-2,7-naphthyridin-3-yl)cyclopropanecarboxamide], the IC50 in assay [1] was no more than 500 nM. Further, the Kd on TYK2 JH2 is no more than 100 nM.
On to `CNc1ncc(C#Cc2cccc3c2CCCC3=O)c2cc(NC(=O)C3CC3)ncc12` [Example 1019, N-(8-(methylamino)-5-((5-oxo-5,6,7,8-tetrahydronaphthalen-1-yl)ethynyl)-2,7-naphthyridin-3-yl)cyclopropanecarboxamide], for which the IC50 in assay [1] was no more than 500 nM. Also, the Kd at TYK2 JH2 was no more than 100 nM.
For `CNc1ncc(C#Cc2nc3ccccc3s2)c2cc(NC(=O)C3CC3)ncc12` [Example 1020, N-(5-(benzo[d]thiazol-2-ylethynyl)-8-(methylamino)-2,7-naphthyridin-3-yl)cyclopropanecarboxamide], the IC50 in assay [1] is no more than 500 nM. The Kd on TYK2 JH2 is no more than 100 nM.
Taken in the same sequence, the figures for `CNc1ncc(C#Cc2cnn3cccnc23)c2cc(NC(=O)C3CC3)ncc12` [Example 1021, N-(8-(methylamino)-5-(pyrazolo[1,5-a]pyrimidin-3-ylethynyl)-2,7-naphthyridin-3-yl)cyclopropanecarboxamide] were no more than 500 nM and no more than 100 nM.
As for `CNc1ncc(-c2nc3ccc(N4CCOC(COC)C4)cn3n2)c2cc(NC(=O)C3CC3)ncc12` (stereo not shown) [Example 1022, N-(5-(6-(2-(methoxymethyl)morpholino)-[1,2,4]triazolo[1,5-a]pyridin-2-yl)-8-(methylamino)-2,7-naphthyridin-3-yl)cyclopropanecarboxamide], in assay [1], the IC50 is no more than 500 nM. Besides, the Kd at TYK2 JH2 is no more than 100 nM.
With `CNc1ncc(-c2cn3ccc(OC)cc3n2)c2cc(NC(=O)C3CC3)ncc12` [Example 1025], the IC50 in assay [1] was greater than 500 nM. In addition, the Kd on TYK2 JH2 was no more than 100 nM.
As for `CNc1ncc(-c2nc3ccc(N4CCOC(C(C)(C)O)C4)cn3n2)c2cc(NC(=O)C3CC3)ncc12` (stereo not shown) [Example 1026], in assay [1], the IC50 was no more than 500 nM. In addition, the Kd at TYK2 JH2 was no more than 100 nM.
In the same order, the values of `CNc1ncc(-c2nc3ccc(N4CCO[C@@H](C(C)(C)O)C4)cn3n2)c2cc(NC(=O)C3CC3)ncc12` [Example 1027] are no more than 500 nM and no more than 100 nM.
As to `CNc1ncc(-c2nc3ccc(N4CCO[C@H](C(C)(C)O)C4)cn3n2)c2cc(NC(=O)C3CC3)ncc12` [Example 1028], the IC50 in assay [1] was no more than 500 nM. Besides, at TYK2 JH2, the Kd is no more than 100 nM.
In the case of `CNc1ncc(-c2nc3ccc(N4CCOC(CO)C4)cn3n2)c2cc(NC(=O)C3CC3)ncc12` (stereo not shown) [Example 1029], the IC50 in assay [1] was no more than 500 nM. The Kd on TYK2 JH2 was no more than 100 nM.
Taken in the same sequence, the figures for `CNc1ncc(-c2nc3ccc(N4CCO[C@@H](CO)C4)cn3n2)c2cc(NC(=O)C3CC3)ncc12` [Example 1030] were no more than 500 nM and no more than 100 nM.
As for `CNc1ncc(-c2nc3ccc(N4CCO[C@H](CO)C4)cn3n2)c2cc(NC(=O)C3CC3)ncc12` [Example 1031], the IC50 in assay [1] is no more than 500 nM. Besides, the Kd at TYK2 JH2 was no more than 100 nM.
For the molecule `CNc1ncc(-c2nc3ccc(N4CCO[C@@H](C(C)(C)OC)C4)cn3n2)c2cc(NC(=O)C3CC3)ncc12` [Example 1032], the IC50 in assay [1] is no more than 500 nM. For the same molecule, the Kd at TYK2 JH2 was no more than 100 nM.
In the same order, the values of `CNc1ncc(-c2nc3ccc(N4CCO[C@H](C(C)(C)OC)C4)cn3n2)c2cc(NC(=O)C3CC3)ncc12` [Example 1033] are no more than 500 nM and no more than 100 nM.
